# Laboratory results taken from patent US12201610B2, “Compositions comprising aticaprant” (Janssen Pharmaceuticals, Inc., priority 2022, dated 2025).
# What was measured:
# Format in all cases: in vivo, human
# subjects with MDD [1] = assay: HAM-A6 total score (Example 6); conditions: 10 mg; Treatment Week 6; 59 subjects analyzed
# Description: (§1) v. To investigate the effect of aticaprant on symptoms of anxiety using the HAM-A and on core symptoms of anxiety using the HAM-A6 subscale.
# (§2) • (i) Depression: Montgomery-Åsberg Depression Rating Scale (MADRS), Clinical Global Impression-Severity (CGI-S), Symptoms of Major Depressive Disorder Scale (SMDDS), and Self-assessment of treatment experience (SATE) • (ii) Anhedonia: Snaith-Hamilton Pleasure Scale (SHAPS) • (iii) Anxiety: Structured Interview Guide for the Hamilton Anxiety scale (SIGH-A) and HAM-A6 • (iv) Effects on Cognition: The Cognitive and Physical Functioning Questionnaire (CPFQ) • (v) Safety assessments
# subjects with MDD [2] = assay: ASEX sexual functioning score (Example 6)
# Description: As used herein, the term “decrease in sexual functioning” refers to reducing or lessening of one or more components of the human sex drive, i.e., sexual functioning. In some embodiments, the sexual functioning comprises one or more of sexual drive, sexual arousal, vaginal lubrication, erection, orgasm achievement, or orgasm satisfaction. In other embodiments, the sexual functioning comprises sexual drive. In further embodiments, the sexual functioning comprises vaginal lubrication satisfaction. In further embodiments, the sexual functioning comprises orgasm achievement. In yet other embodiments, the sexual functioning comprises orgasm satisfaction. Desirably, the patient's sexual functioning is assessed at the time of initial administration of aticaprant. Thus, the patient's sexual functioning while taking aticaprant can be compared to the patient's sexual functioning before administration of aticaprant. Sexual functioning may be assessed by using standard scales and techniques such as the Arizona Sexual Experience Scale (ASEX). The ASEX is used to investigate whether aticaprant has a further positive or negative effect on sexual function. The ASEX is 5 item rating scale administered to patients that quantifies sexual drive, sexual arousal, vaginal lubrication or penile erection, ability to reach orgasm and satisfaction. Scores range from 5 to 30, and two different versions of the scale are available (males and females).
# Patients had their sexual functioning measured using a standard, well accepted rating scale: ASEX. See, Table 48.
# subjects with MDD [3] = assay: SIGH-A score (Example 6); conditions: 10 mg; Treatment Week 6; 59 subjects analyzed
# Description: as §1, §2
compound,measurement,setting,value
"Cc1cc(C)cc(C2CCCN2Cc2ccc(Oc3ccc(C(N)=O)cc3F)cc2)c1 (stereo not shown) [aticaprant, 3-fluoro-4-4-2-(3,5-dimethylphenyl)pyrrolidin-1-yl-methylphenoxybenzamide]","Change from Treatment Baseline in HAM-A6 Total Score, Arithmetic Mean (SD)",subjects with MDD [1],−2.73 ± 2.651 scores on a scale
same,ASEX score,"subjects with MDD [2]; Baseline, n = 85",21.26
same,ASEX score,"subjects with MDD [2]; Endpoint, n = 85",19.79
same,ASEX score Relative % Change,subjects with MDD [2]; n = 85,−6.91%
same,ASEX score Absolute Change,"subjects with MDD [2]; n = 85, lower score indicates improvement",−1.47
same,ASEX total score mean change from treatment baseline (SD),"subjects with MDD [2]; to week 6, lower score indicates improvement",−1.5 (4.02) points
same,"Change from Treatment Baseline in SIGH-A score, Arithmetic Mean (SD)",subjects with MDD [3],−5.85 ± 5.369 scores on a scale
